We go through three compounds from publication PMC7793531 (International Journal of Molecular Sciences, 2020).

Data set [1] concerns the target T1, VEGF-A165/NRP-1 complex (Homo sapiens, UniProt O14786).
T1 construct: purchased R&D Systems
T1 sequence (O14786 22-641 limits assumed): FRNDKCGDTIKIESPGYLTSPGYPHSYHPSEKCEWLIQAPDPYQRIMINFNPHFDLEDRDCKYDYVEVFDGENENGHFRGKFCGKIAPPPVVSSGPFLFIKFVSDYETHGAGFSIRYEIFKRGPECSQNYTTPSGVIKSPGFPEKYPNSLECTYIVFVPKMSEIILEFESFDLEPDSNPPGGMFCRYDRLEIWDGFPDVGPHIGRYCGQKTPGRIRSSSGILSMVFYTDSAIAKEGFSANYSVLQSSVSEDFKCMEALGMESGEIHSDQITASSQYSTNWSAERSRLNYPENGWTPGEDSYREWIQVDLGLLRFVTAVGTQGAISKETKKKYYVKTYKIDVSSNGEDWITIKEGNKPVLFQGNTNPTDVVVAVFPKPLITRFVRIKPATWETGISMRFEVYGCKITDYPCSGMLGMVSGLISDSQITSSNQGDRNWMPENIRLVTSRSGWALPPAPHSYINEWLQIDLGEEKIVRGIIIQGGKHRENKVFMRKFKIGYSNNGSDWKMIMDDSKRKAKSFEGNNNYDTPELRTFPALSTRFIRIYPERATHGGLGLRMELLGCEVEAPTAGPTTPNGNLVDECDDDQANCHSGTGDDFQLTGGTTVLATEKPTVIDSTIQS
As to the kind of experiment: Competitive ELISA-like assay, inhibition of bt-VEGF-A165 binding to immobilized NRP-1. As to conditions: recombinant human NRP-1, bt-VEGF-A165, chemiluminescence; read-out: IC50, VEGF-A165/NRP-1 complex inhibitory effect. The method, then:
Inhibitory activity of urea–peptide hybrids against VEGF-A165/NRP-1 complex formation was assessed with a screening ELISA-like assay. NRP-1 was immobilized on microplate wells by simple adsorption and urea–peptide hybrids competed for NRP-1 with biotinylated VEGF-A165 (bt-VEGF-A165). The amount of receptor bound bt-VEGF-A165 was visualized by its interaction with the streptavidin–horseradish peroxidase conjugate (strep-HRP) and the chemiluminescent substrate. The first analyzed group of compounds were analogues 1–3 with the urea bond between L1 and L2. […] The best hybrid in this group was compound 3, which had Lys^U (gDab) branching (where “g” corresponds to guanidinium group), but its IC50 value decreased only 2-fold. Therefore, we assume that no additional interactions between urea bond and the surface of the protein occurred. […] In the case of urea–peptide hybrids, the urea bond might be capable of forming additional hydrogen bonds with protein residues on the surface of NRP-1. The affinity of compounds may conceivably be affected by the colocation of the urea bond and the free amino group of hArg in the branching. In addition, for compounds 4–6, we can observe that decreasing the distance between the free amino group in the main chain and the urea bond in the branching has a positive effect on compounds’ affinity for NRP-1.
This method was previously described for NRP-1 [44, 45, 46]. Briefly, overnight coating at 4 °C of the flat bottom surface of a 96-well plate with 100 μL (200 ng/well) recombinant human NRP-1, NRP-2, VEGFR-1 or VEGFR-2 was followed by non-specific interactions blocking using 0.5% bovine serum albumin (BSA) in PBS. Next, 50 µL of urea–peptide hybrid in PBS and 50 µL (400 ng/mL) of human (bt)-VEGF-A165 in PBS containing 4 µg/mL of heparin were added respectively. Plates were incubated for 2 h at RT, and then washed and treated with streptavidin-horseradish peroxidase conjugate in PBS (1:8000). Next, 100 µL chemiluminescent substrate was added, and luminescence was quantified using Tecan Infinite F200Pro microplate reader (Männedorf, Switzerland). In a positive control (P) only (bt)-VEGF-A165 was present in wells. Not coated by receptor wells were treated as a negative control (N). Percentages of inhibition were calculated by the following formula:100% − [[(S − N)/(P − N)]∙100%](1) where S is the signal intensity measured in wells with urea–peptide hybrid. The IC50 of each urea–peptide hybrid was calculated using the nonlinear regression function with GraphPad Prism Version-5.01 (GraphPad Software, San Diego, CA, USA). Data are presented as log (inhibitor) versus normalized response-variable slope (Figure S16). Data are the means ± SEMs of two or three independent experiments, each performed in triplicate.

The subject of data set [2] is NRP-1-positive breast cancer cells (MDA-MB-231). In words: Labelled urea-peptide hybrid binding assay at 4 °C on cells (FACS), with NRP-1 co-staining. It counts as cell-based, human. The source says:
VEGF-A165 binds to cell-surface NRP-1 on endothelial cells, effectively reducing surface levels of this receptor, promoting complex internalization and possibly inducing biological effects. Based on this mechanism, peptide carriers for selective drug delivery, such as iRGD peptides, have been recently disclosed. The iRGDs are used to selectively address potential therapeutic agents, e.g., doxorubicin or siRNAs inside malignant cells. We tested our tagged urea–peptide hybrid’s ability to bind human NRP-1-positive breast cancer cells (MDA-MB-231), which expressed large amount of NRP-1 at the cell surface (Figure 6a). A broad range of concentrations between 0 to 100 µg/mL of compound 10 was used to show its binding capacity on cells using fluorescence-activated cell sorting (FACS). […] To follow the impact of the ligation of this peptidomimetic on NRP-1 expression, we verified whether hybrid 10 binding interferes with the antibody used to detect NRP-1. […]
(§1) Cells were harvested using a mix of EDTA/Trypsin buffer (Invitrogen, France) to detach cells from plastic after 5 min exposure at 37 °C. […] After washing with PBS containing 2% FCS, stained cells were analyzed using BD FACSCalibur^TM (San Jose, CA, USA) and FlowJo^TM cell analysis software (FlowJo LLC, Ashland, OR, USA). […]

The test system of data set [3] is NRP-1 expression on MDA-MB-231 breast cancer cells. In words: Labelled urea-peptide hybrid binding assay at 37 °C, time course of NRP-1 cell surface expression (FACS). It counts as cell-based, human. As to the method: Usually, in the presence of its natural ligand, a transmembrane receptor at the cell surface may induce signaling, internalization of complex and recycling at the cell surface. […] Thus, to identify the mechanism of action of the hybrid 10 on the NRP-1 expression on cells, we followed its expression after a time course exposure of cells at 37 °C. […] This intriguing result focused our attention on tracking the level of expression intensity of NRP-1 on the surfaced of MDA-MB-231 cells exposed on compound 10. […] The median fluorescent intensity after 1 h (T60) of cell exposure on hybrid 10 was 1.5-fold higher than after 5 min of incubation (Figure 7b). […] This hypothesis is strengthened here, since MDA-MB-231 expressed a large amount of NRP-1 at the cell surface, but also had plenty of the cytoplasmic counterpart, reaching a maximum of median fluorescence intensity higher than the restricted level of NRP-1 expression at the surface (Figure 7c).
as §1

Data set [4] in a line: In vitro enzymatic stability in human blood serum (LC-SWATH-MS). As to conditions: pooled human blood serum, 37 °C. Type of data set: in vitro ADME. As to the method:
Rapid renal clearance and enzymatic degradation are classified as most important disadvantages of peptides as drugs. Covalent linkage to plasma proteins or chemical modifications, including amide bond modifications, might improve their half-lives. We performed proteolytic stability studies in human blood serum to investigate whether the introduction of urea bonds affected the half-lives of compounds from each of synthesized group of hybrids. Compounds 3, 6 and 7 were incubated with human serum at 37 °C. Samples were taken at different time intervals and analyzed using LC-SWATH-MS [88, 89, 90]. […] Hybrids 6 and 7 were stable toward enzymatic degradation, with 50% of each compound still being intact after 96 h (Figure 5). […] Overall, it can be concluded that the substitution of an amide bond with a urea bond has a positive effect on the proteolytic stability of the examined inhibitors.
The study was conducted in full accordance with ethical principles in accordance with the ICH E6 (R2) Guideline for Good Clinical Practice and the Code of Good Customs in Science developed by the Polish Academy of Sciences. Signed consent for using serum was obtained from volunteers. The Rector’s Commission for Ethics of Scientific Research with Human Participation, University of Warsaw, Warsaw, Poland gave the ethical approval (approval number 51/2020). Human blood from four healthy persons was directly drawn into evacuated tubes and left undisturbed at room temperature for 1 h to clot. Tubes were centrifuged at 2500× g for 10 min to prevent possible platelet activation. Serum was pipetted out of the blood collection tubes, pooled and collected in microtubes.
A degradation assay was adapted from a method described previously. Human blood serum was preactivated in Eppendorf ThermoMixer® Comfort (Hamburg, Germany) at 37 °C for 20 min (350 rpm). Next, 20 μL of aqueous urea–peptide hybrid stock solution was added to give ∼750 μg/mL final compound concentration, and incubation was continued. At selected time intervals, 50 μL of the mixture was collected and quenched by adding 200 μL of ACN:H2O:FA mixture (89:10:1, v:v:v). The obtained suspension was vortexed for 1 min (3000 min^−1) and centrifuged for 10 min in 4 °C (11,000× g). 100 μL of supernatant was collected and lyophilized. The samples reconstituted in 1 mL of 10 mM ammonium formate with 0.1% FA were subjected to LC-MS. Relative concentration at time intervals was calculated using peak area of either individual or most intense fragment of compound of interest. Analyst software version 1.7.1 was used for data acquisition, Peak View 2.2 and MultiQuant 2.1 (Sciex, ON) were used for data processing. Detailed analytical data can be found in Supplementary Materials (Figures S17–S45). […]

Data set [5] addresses T1, VEGF-A165/NRP-1 complex. To be noted: read-out: IC50, VEGF-A165/NRP-1 complex inhibitory effect, cited from earlier work.

pIC50: −log10 of the molar value. Where two headings read alike, the source gives them in different places. Non-standard residues stand in square brackets, D forms with d. Residues, ends and D or L forms follow the SMILES beside them. ξ: configuration not given here. Oic(3aξ,7aξ) = O=C(O)[C@@H]1CC2CCCCC2N1; hArg = N=C(N)NCCCC[C@H](N)C(=O)O; Dab = NCC[C@H](N)C(=O)O

With “5/6-FAM-Dab(hArg^U)-Dab-Oic-Arg [Compound 10]”, on VEGF-A165/NRP-1 complex [1], the pIC50 is 5.39. In data set [2] (0 to 100 µg/mL, FACS), the binding on cells entry is recorded as “dose-dependent”. For the same compound, the “median fluorescence intensity of NRP-1 staining in presence of compound” value in data set [2] (100 μg/ml, 4 °C, 94 in its absence) turned out to be 88. The “median fluorescent intensity of NRP-1 after 1 h (T60) relative to 5 min of incubation” value in data set [3] (100 µg/mL, 37 °C) is 1.5 fold. Moreover, the “effect on NRP-1 cell surface expression” value in data set [3] (time course at 37 °C, independently of time exposure) is on record as “no downmodulation of NRP-1 expression”.
In data set [4], `N=C(N)NCCCC[C@H](N)C(=O)NCCCC[C@H](N)C(=O)N[C@@H](CCN)C(=O)N1C2CCCCC2C[C@H]1C(=O)N[C@@H](CCCNC(=N)N)C(=O)O` (stereo partly drawn) [PP, Lys(hArg)-Dab-Oic-Arg, reference compound] (H-K(hArg)[Dab][Oic(3aξ,7aξ)]R-OH) had a half-life of 8 h. In addition, at VEGF-A165/NRP-1 complex [5] (data already published), the pIC50 is 5.64.
As for Lys(Arg^U)–Dab–Oic–Arg, the pIC50 on VEGF-A165/NRP-1 complex [5] (earlier urea analogue) was 5.26.
